How the values were obtained:
Type in all cases: functional
Mus musculus [1] = assay: The ED50 value of compound was measured for 50% inhibition for analgesia in mice after oral administration by the hotplate method
Mus musculus [2] = assay: Analgesia was determined by writhing test in mice after 10 mg/kg oral administration
Mus musculus [3] = assay: Analgesia was determined by writhing test in mice after 100 mg/kg oral administration; Range is 50-74%.
Mus musculus [4] = species: Mus musculus; assay: animal or person
Description: The ED50 value of compound was measured for 50% inhibition for analgesia in mice by the hotplate method

Mus musculus [5] = assay: Analgesia was determined by writhing test in mice after 30 mg/kg oral administration; Range is 50-74%.
Mus musculus [6] = assay: Analgesia was determined by writhing test in mice after 100 mg/kg oral administration; Range is 75-99%.
Mus musculus [7] = assay: Analgesia was determined by writhing test in mice after 30 mg/kg oral administration
Mus musculus [8] = assay: Analgesia was determined by writhing test in mice after 100 mg/kg oral administration; Range is 25-49%.

CCCC1(c2cccc(O)c2)CCN(C)C1 (stereo not given) [PROFADOL]
ED50 (Mus musculus [1]): 3.9 mg/kg
inhibition in vivo at 10 mg/kg (Mus musculus [2]): 100%

COc1ccc2c(c1)CCCC21CCN(C)C1 (stereo not given)
inhibition in vivo at 100 mg/kg (Mus musculus [3]): 50%

Oc1ccc2c(c1)C1(CCC2)CCNC1 (stereo not given)
inhibition in vivo at 100 mg/kg (Mus musculus [3]): 50%

Br.CN1CCC2(CCCc3ccc(O)cc32)C1 (stereo not given)
ED50 (Mus musculus [4]): 42.8 mg/kg
inhibition in vivo at 30 mg/kg (Mus musculus [5]): 50%

COc1cccc2c1CCCC21CCNC1 (stereo not given)
ED50 (Mus musculus [4]): 48.6 mg/kg
inhibition in vivo at 30 mg/kg (Mus musculus [5]): 50%

CN1CC[C@]23c4c5ccc(O)c4O[C@H]2[C@@H](O)C=C[C@H]3[C@H]1C5.Cl [MORPHINE HYDROCHLORIDE]
inhibition in vivo at 10 mg/kg (Mus musculus [2]): 100%
ED50 (Mus musculus [4]): 1.2 mg/kg

COc1cccc2c1CCCC21CCN(C)C1 (stereo not given)
inhibition in vivo at 100 mg/kg (Mus musculus [6]): 75%

Br.CN1CCC2(CCCc3cc(O)ccc32)C1 (stereo not given)
ED50 (Mus musculus [4]): > 50 mg/kg
inhibition in vivo at 30 mg/kg (Mus musculus [5]): 50%

Br.Oc1cccc2c1CCCC21CCNC1 (stereo not given)
ED50 (Mus musculus [1]): > 50 mg/kg
inhibition in vivo at 30 mg/kg (Mus musculus [5]): 50%

Cl.c1ccc2c(c1)CCCC21CCNC1 (stereo not given)
ED50 (Mus musculus [4]): 13.3 mg/kg
inhibition in vivo at 30 mg/kg (Mus musculus [7]): 100%

Oc1ccc2c(c1)CCCC21CCNC1 (stereo not given)
inhibition in vivo at 100 mg/kg (Mus musculus [3]): 50%

COc1ccc2c(c1)CCCC21CCNC1 (stereo not given)
inhibition in vivo at 100 mg/kg (Mus musculus [8]): 25%

CN1CCC2(CCCc3c(O)cccc32)C1 (stereo not given)
inhibition in vivo at 100 mg/kg (Mus musculus [8]): 25%

CN1CCC2(CCCc3ccccc32)C1.Cl (stereo not given)
ED50 (Mus musculus [4]): 12.1 mg/kg
inhibition in vivo at 30 mg/kg (Mus musculus [7]): 100%

COc1ccc2c(c1)C1(CCC2)CCNC1 (stereo not given)
inhibition in vivo at 100 mg/kg (Mus musculus [8]): 25%

COc1ccc2c(c1)C1(CCC2)CCN(C)C1 (stereo not given)
ED50 (Mus musculus [1]): > 50 mg/kg
inhibition in vivo at 30 mg/kg (Mus musculus [5]): 50%

From ChEMBL document CHEMBL1121615, “Synthesis and analgesic properties of some conformationally restricted analogues of profadol” (1980)
